# Values quoted from earlier work as cited in patent US6423847B1, “Synthesis and clinical uses of D,α-tocopherol nicotinate compounds” (Chronorx, LLC, priority 1999, dated 2002).
# Read-outs that look alike come from different tables or passages of the source.
# What was measured:
# [1] = laboratory mice
# [2] = test system: exogenous glucose utilization by the heart; details: normal volunteers, 18F-fluorodeoxyglucose PET
# [3] = test system: liver NAD+; poly(ADP-ribose)
# [4] = test system: glutathione peroxidase (GSHPx); details: following supplementation with DAT
# [5] = test system: human aortic endothelial cells; details: human aortic endothelial cells pre-incubated with vitamin E, oxidative stress; increased from 37%
# [6] = test system: malonyldialdehyde and superoxide anion levels; details: 400 mg once a day, orally for 4 weeks
structure (smiles),measurement,setting,value
"O=C(O)c1cccnc1 [Nicotinic acid, nicotinic acid]",increase in Zn+2 absorption,[1]; fasting states,38.9%
same,increase in Zn+2 absorption,[1]; postprandial conditions,70.9%
same,increase in exogenous glucose utilization by the heart,[2],two- to three-fold increase
NC(=O)c1cccnc1 [nicotinamide],liver polyADP-ribose,[3]; above control groups,significantly elevates
same,liver NAD+,[3]; at 1000 mg/kg,elevations
"Cc1c(C)c2c(c(C)c1O)CC[C@@](C)(CCC[C@H](C)CCC[C@H](C)CCCC(C)C)O2 [vitamin E, D,α-tocopherol]",glutathione peroxidase (GSHPx) activities,[4],increase as much as twofold
same,cell viability,[5],85%
same,malonyldialdehyde levels,[6],significantly reduces
same,superoxide anion levels,[6],significantly reduces
